Measurements from patent US4272530A, “Δ^1,3,5(10) -Estratrienes” (Roussel Uclaf, priority 1977, dated 1981).

How the values were obtained:
[1] = target: T1, specific uterine reception of estradiol (uterus cytosol) (Mus musculus, UniProt P19785); experiment: hormonal receptor method of Raynaud et al.: displacement of tritiated estradiol in uterus cytosol; assay type: binding, mice
T1 construct: the uterus was removed and homogenized in a buffered solution; from tissue; host or cells: uterus cytosol (105,000 g supernatant) of immature female mice, 18 to 21 days old
T1 sequence (P19785 1-599): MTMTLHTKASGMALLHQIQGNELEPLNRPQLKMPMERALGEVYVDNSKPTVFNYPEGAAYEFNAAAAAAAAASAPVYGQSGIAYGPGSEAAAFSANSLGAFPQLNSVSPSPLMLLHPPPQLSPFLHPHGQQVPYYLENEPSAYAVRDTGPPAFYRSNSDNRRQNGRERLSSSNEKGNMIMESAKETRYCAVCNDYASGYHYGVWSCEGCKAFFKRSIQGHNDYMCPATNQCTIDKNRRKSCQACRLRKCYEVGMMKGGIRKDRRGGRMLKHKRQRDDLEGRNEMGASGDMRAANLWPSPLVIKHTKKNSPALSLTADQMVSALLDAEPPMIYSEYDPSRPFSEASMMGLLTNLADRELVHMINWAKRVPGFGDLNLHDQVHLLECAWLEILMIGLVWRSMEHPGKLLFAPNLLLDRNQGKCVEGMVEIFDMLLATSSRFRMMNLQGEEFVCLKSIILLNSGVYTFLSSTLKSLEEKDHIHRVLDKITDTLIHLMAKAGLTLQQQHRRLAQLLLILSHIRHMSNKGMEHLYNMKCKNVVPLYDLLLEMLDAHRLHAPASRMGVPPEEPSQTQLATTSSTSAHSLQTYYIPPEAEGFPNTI
Protocol: The estrogenic activity was determined for 11β-vinyl-17α-ethynyl-^1,3,5(10) -estratriene-3,17β-diol was determined by the hormonal receptor method of Raynaud et al. [J. Ster. Biochem., Vol. 6 (1975), p. 615-622]. Immature female mice aged 18 to 21 days old were sacrificed and the uterus was removed and homogenized in a buffered solution of […] of tromethamine, 0.25 M of saccharose and a pH of 7.4 with hydrochloric acid. The homogenate was centrifuged at 105,000 g per hour and the surnageant or cytosol was adjusted to a dilution of 1/25 (weight/volume). […] The radioactivity of the tritiated product R was determined in 2 hours by the technique of adsorption on carbondextran (1.25%-0.625%). The plots were the curves representing the percentage of tritiated product R as a function of the log of the concentration of cold product R or the test product and the I50 straight line parallel to the axis of the abcisses and ordinates [formula] B/T max. is the percentage of tied tritiated product R when the product is not added and B/T min. is the percentage of tied tritiated product R when the maximum amount of cold product R is added.

female mice = experiment: estrogenic (uterotrophic) activity by the method of Rubin, uterus weight; assay type: in vivo; conditions: for Weight of uterus: female mice 19-21 days old, killed on 4th day, control 11.4 ± 0.5
Protocol: The estrogenic activity of the product of Example 1 was also determined by the method of Rubin [Endocrinology, Vol. 49 (1951), p. 429] in which female mice 19-21 days old received once a day for 3 days a subcutaneous injection of the test product. The animals were killed on the 4th day and the uterus was removed, dissected and weighed. The test product was administered in a volume of 0.1 ml of oily solution at doses of 0.01γ, 0.03γ, 0.09γ and 0.27γ.

**Q.** Which “affinity for specific uterine reception of estradiol compared with estradiol” value ([1]; conclusion from Table III) does the source give for `C#C[C@]1(O)CC[C@H]2[C@@H]3CCc4cc(O)ccc4[C@H]3[C@@H](C=C)C[C@@]21C` [Example 1, 11β-vinyl-17α-ethynyl-Δ^1,3,5(10) -estratriene-3,17β-diol] here?
**A.** Its value is “greater affinity for specific uterine reception of estradiol than estradiol”.

**Q.** What about the “ARL (relative affinity of the test product)” value ([1]; immature female mouse uterus cytosol, tritiated estradiol, 25° C. for 5 hours, estradiol = 100) of the same molecule?
**A.** Its value is 240.

**Q.** What about the uterotrophic activity (female mice; conclusion from Table IV) of the same molecule?
**A.** Its uterotrophic activity is “clear uterotrophic activity”.

**Q.** What about the “Weight of uterus” value (female mice; dose 0.01γ subcutaneous once a day for 3 days) of the same molecule?
**A.** Its value is 25.8 ± 1.7 mg.

**Q.** What about the “Weight of uterus” value (female mice; dose 0.03γ subcutaneous once a day for 3 days) of the same molecule?
**A.** The value was 90.1 ± 5.7 mg.

**Q.** What about the “Weight of uterus” value (female mice; dose 0.09γ subcutaneous once a day for 3 days) of the same molecule?
**A.** Its value is 128.8 ± 12.1 mg.

**Q.** What about the “Weight of uterus” value (female mice; dose 0.27γ subcutaneous once a day for 3 days) of the same molecule?
**A.** The value was 107.6 ± 7.4 mg.
